Experimental data published in US20200121699A1, “COMBINATION THERAPIES COMPRISING IMMUNO-ONCOLOGY AGENTS AND BELINOSTAT” (ONXEO, priority 2016, published 2020).

What was measured:
[1] = system: Hepa129 murine hepatocellular carcinoma cells; test: Antitumor efficacy in subcutaneous Hepa129 hepatocellular carcinoma mouse model; assay type: in vivo, C3H mice; details: s.c. Hepa129 tumors, Beleodaq 90 mg/kg IP daily D7 to D27, antibodies 50 μg/mouse IP D7, D14
Protocol: As tumor model, Hepa129 murine hepatocellular carcinoma cells implanted subcutaneously in C3H mice were used. Hepa129 cells were maintained in culture up to 3 passages before injection in mice. Cells were sub-cultured three days before the day of injection.
The day of cell injection, Hepa129 cells were harvested and centrifuged at 1800 rpm for 5 min, and resuspended in PBS. Cells were counted in 0.04% Trypan Blue for viability quantification. Cells were resuspended in the adequate volume of PBS in order to have 10^6 cells in 100 μL. […] were subcutaneously injected into the right flank of mice.
When subcutaneous Hepa129 tumors reached a mean tumor diameter of about 5 mm (day 7), mice were allocated to treatment groups and identified individually by ear tags. Beleodaq® was administered IP daily at days 7 to 27 at 90 mg/kg. Antibodies Isotype control (2A3) and anti-CTLA-4 (9D9) (from BioXcell) were administered IP at days 7 and 14.
Treatment allocation were performed as follows for antitumor efficacy study:
Animals were monitored and sacrificed when tumor diameter reached 17 mm. Each experiment was carried out twice with n=8 animals per group.

[2] = system: irradiated Hepa129 tumor cells; test: IFN-gamma ELISPOT of spleen cells from treated tumor-bearing mice stimulated with irradiated tumor cells; assay type: in vivo, C3H mice; details: 20-h ELISPOT, two-week treatment, versus the same antibody without Beleodaq
Protocol: Treatment allocation were performed as follows for immune characterization study:
A single experiment was carried out for each drug, using n=5 animals per group.
Lymphoid organs (spleen, lymph nodes) were obtained from sacrificed animals, homogenized and cell suspensions were used to measure the following parameters:
ELISPOT: measuring the number of IFN-gamma spot forming cells after co-culture of lymphocytes with irradiated Hepa129 tumor cells.
Tumor-bearing mice were treated during two weeks and sacrificed to obtain their spleen and analyze immune-related parameters. For these experiments mice received two antibody administrations (days 0 and 7) and Beleodaq® (daily) during the two-week treatment period.
Functional assays: Spleen cells were stimulated with irradiated tumor cells to analyze antitumor T cell responses measured as IFN-gamma production using a 20-h ELISPOT assay.

[3] = system: 4T1 breast cancer cells; test: Orthotopic 4T1 breast cancer mouse model; assay type: in vivo, Balb/C mouse; details: 4T1 in mammary fat gland; belinostat 80 mg/kg i.p. daily from day 8; antibodies 200 μg/mouse i.p.
Protocol: The Belinostat treatment was formulated every one or two day.
The aPD1 treatment solutions were prepared on the days of the treatment (days 8, 12, 16 and 20).
The aCTLA4 treatment solutions were prepared on days 7, 11, 16 and 20 and stored at 4° C.
4T1 breast cancer cells (5*10^5 cells per Balb/C mouse) were in occulated in the mammary fat gland of Balb/C females. The 4T1 (ATCC CRL-2539) cells were bought from ATCC and cultured in RPMI-1640 Medium containing 10% fetal bovine serum. Cells were passaged 5-10 times before in inoculation. Cells were detached with trypsin, washed twice in PBS, centrifuged and resuspended in PBS. Cell viability was checked by a staining with […] and cells were used when viability was higher than 95%. Cells were counted manually and adjusted to 5*10^6 cells per ml. Finally 100 μl were injected.

With O=C(/C=C/c1cccc(S(=O)(=O)Nc2ccccc2)c1)NO [Beleodaq®, (2E)-N-hydroxy-3-[3-(phenylsulfamoyl)phenyl]prop-2-enamide] the tumor growth [1] was “did not modify”, the animal survival ([1]; sacrificed when tumor diameter reached 17 mm) was “did not modify” and the “antitumor T cell responses measured as IFN-gamma production” value [2] was “no significant differences”. For the same compound, the “apparent external tumor size” value [3] was “reduced” and the mortality [3] was “reduced”.
